# Measurements as given in patent US7078222B2, “Microorganism for producing riboflavin and method for producing riboflavin using the same” (CJ Corp., priority 2002, dated 2006).
# Experiments:
# [1] = tested on: Bacillus subtilis CJKB0002 (KCCM-10446); assay: Evaluation of resistance against DL-β-hydroxynorvaline (growth in DL-β-hydroxynorvaline-containing minimal medium); format: cell-based; design: key to growth of strain: +: growth; −: not growth; conditions: for growth of strain: 30° C., 5 days
# Experimental: (§1) In this example, in order to evaluate resistance to DL-β-hydroxynorvaline, the Bacillus subtilis CJKB0002 (KCCM-10446) of Example 1 and the Bacillus subtilis AS5 as the parent strain were cultured in various concentrations of DL-β-hydroxynorvaline-containing media. In detail, respective strains were inoculated onto DL-β-hydroxynorvaline-containing media as shown in Table 1 and cultured at 30° C. for 5 days. In this case, the concentration of DL-β-hydroxynorvaline ranged from 0 to 350 mg/l.
# Bacillus subtilis AS5 = assay: as above; format: cell-based; design: key to growth of strain: +: growth; −: not growth; conditions: for growth of strain: 30° C., 5 days
# Experimental: as §1
structure (smiles),measurement,setting,value
CCC(O)C(N)C(=O)O (racemic) [DL-β-hydroxynorvaline],growth of strain,[1]; 250 mg/l DL-β-hydroxynorvaline,+
same,growth of strain,[1]; 300 mg/l DL-β-hydroxynorvaline,−
same,growth of strain,[1]; 350 mg/l DL-β-hydroxynorvaline,−
same,enhanced resistance to threonine analogue compared to Bacillus subtilis AS5,[1]; CJKB0002 versus AS5,five times
same,concentration of DL-β-hydroxynorvaline in which the strain can grow,[1]; mutant CJKB0002,≤ 250 mg/L
same,growth of strain,Bacillus subtilis AS5; 50 mg/l DL-β-hydroxynorvaline,+
same,growth of strain,Bacillus subtilis AS5; 100 mg/l DL-β-hydroxynorvaline,−
same,growth of strain,Bacillus subtilis AS5; 200 mg/l DL-β-hydroxynorvaline,−
same,growth of strain,Bacillus subtilis AS5; 250 mg/l DL-β-hydroxynorvaline,−
same,growth of strain,Bacillus subtilis AS5; 300 mg/l DL-β-hydroxynorvaline,−
same,growth of strain,Bacillus subtilis AS5; 350 mg/l DL-β-hydroxynorvaline,−
same,concentration of DL-β-hydroxynorvaline in which the strain cannot grow,Bacillus subtilis AS5; parent strain AS5,more than 50 mg/l
